{
  "source": "patent US6428812B1",
  "about": "“Process for producing granules containing angiotensin-converting enzyme inhibiting peptides” (Calpis Co., Ltd., priority 1999, dated 2002)",
  "target": "angiotensin-converting enzyme (ACE) (Homo sapiens, UniProt P12821)",
  "sequence (P12821 30-1306, species assumed)": "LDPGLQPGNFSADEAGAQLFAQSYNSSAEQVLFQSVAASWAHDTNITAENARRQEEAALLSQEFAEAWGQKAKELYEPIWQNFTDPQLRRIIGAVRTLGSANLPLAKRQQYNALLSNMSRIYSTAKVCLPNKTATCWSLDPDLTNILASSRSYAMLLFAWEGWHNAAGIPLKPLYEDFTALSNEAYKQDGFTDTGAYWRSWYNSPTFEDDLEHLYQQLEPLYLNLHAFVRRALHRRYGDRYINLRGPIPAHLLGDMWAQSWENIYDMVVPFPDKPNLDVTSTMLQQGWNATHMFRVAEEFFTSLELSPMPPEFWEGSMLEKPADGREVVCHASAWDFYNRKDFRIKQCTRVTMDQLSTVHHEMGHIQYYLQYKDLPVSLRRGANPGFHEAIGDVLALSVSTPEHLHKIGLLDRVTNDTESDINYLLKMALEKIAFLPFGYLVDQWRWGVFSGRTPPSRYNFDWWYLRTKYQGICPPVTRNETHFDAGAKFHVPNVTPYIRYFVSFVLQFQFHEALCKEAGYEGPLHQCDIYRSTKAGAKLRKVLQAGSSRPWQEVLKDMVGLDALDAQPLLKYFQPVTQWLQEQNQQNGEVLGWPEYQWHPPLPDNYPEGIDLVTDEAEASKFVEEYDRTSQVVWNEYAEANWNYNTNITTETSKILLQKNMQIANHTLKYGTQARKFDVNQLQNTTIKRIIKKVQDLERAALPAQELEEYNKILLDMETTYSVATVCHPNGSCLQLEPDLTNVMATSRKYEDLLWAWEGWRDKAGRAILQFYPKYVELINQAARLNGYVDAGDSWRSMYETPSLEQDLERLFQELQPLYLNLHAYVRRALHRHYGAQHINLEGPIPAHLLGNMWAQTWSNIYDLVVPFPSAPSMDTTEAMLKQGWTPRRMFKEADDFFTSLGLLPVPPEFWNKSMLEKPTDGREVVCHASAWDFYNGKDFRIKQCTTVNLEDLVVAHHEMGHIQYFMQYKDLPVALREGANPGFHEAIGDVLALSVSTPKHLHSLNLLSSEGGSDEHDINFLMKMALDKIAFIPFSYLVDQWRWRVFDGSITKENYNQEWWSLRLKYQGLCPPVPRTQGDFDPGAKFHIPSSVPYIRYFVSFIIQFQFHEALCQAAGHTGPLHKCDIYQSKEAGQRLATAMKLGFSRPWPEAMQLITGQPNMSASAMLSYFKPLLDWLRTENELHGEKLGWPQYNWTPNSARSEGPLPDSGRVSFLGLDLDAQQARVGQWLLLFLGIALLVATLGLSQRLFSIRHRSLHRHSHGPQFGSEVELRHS",
  "assay": "ACE inhibitory activity",
  "assay_type": "biochemical",
  "conditions": "ratio IPP versus VPP",
  "data": [
    {"substance": "Ile-Pro-Pro [IPP]", "values": [
      {"measurement": "ACEI activity of IPP relative to VPP", "value": 1.7, "unit": "times"}
    ]}
  ]
}
